Results reported in US10350199B2, “3-(1h-pyrrolo[2,3-b]pyridin-2-yl)-1h-indazoles and therapeutic uses thereof” (Samumed, LLC, priority 2015, dated 2019).

Columns and labels:
Type in all cases: cell-based
[1] = tested on: Wnt activity (Sp5-Luc reporter, SW480 colon carcinoma cells); assay: Wnt activity screening assay, Sp5-Luc reporter gene in SW480 cells; conditions: Homo sapiens; for EC50: Sp5-Luc reporter, SW480 cells, overnight incubation; for inhibition at 10 µM: SW480, read-out: percent inhibition at 10 μM
Summary of the method: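 Read-out is BrightGlo luminescence, normalized to DMSO-treated cells and fitted by four-parameter variable-slope regression for EC50. Reporter cells: SW480 colon carcinoma carrying a stable lentiviral Sp5-Luc construct with eight TCF/LEF sites, seeded 4,000/well in 1% FBS, incubated overnight at 37° C.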

SW480 colon cancer cells = assay: Cell viability assay (CellTiter-Blue), SW480 cells, four days; conditions: Homo sapiens; for EC50: 96 h, SW480 cell viability, four days, CellTiter-Blue; for inhibition at 10 µM: SW480, read-out: percent inhibition at 10 μM
Summary of the method: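 Fluorescence from resazurin reduced to resorufin by metabolically active cells was the read-out, taken after ~3 h with CellTiter-Blue.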

[2] = tested on: primary human fibroblasts derived from IPF patients (LL29 cells) treated with TGF-β1; assay: Inhibition of the fibrotic process: αSMA staining in TGF-β1 treated LL29 fibroblasts; conditions: Fibroblast; for EC50: 96 h, LL29 cells, TGF-β1 20 ng/mL, 4 days, % αSMA positive cells; for inhibition at 10 µM: read-out: percent inhibition at 10 μM
Summary of the method: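 Read-out after 4-day incubation: αSMA staining with 1 μM SYTOX green nuclear counterstain (30 min, room temperature). Cells were LL29 primary fibroblasts from IPF patients, in 1% FBS F12, exposed to TGF-β1 with test compound, referenced to TGF-β1/DMSO control wells.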

[3] = tested on: IL-6 (THP-1 human monocyte cell line); assay: IL-6 inhibition in LPS-stimulated THP-1 cells (HTRF); conditions: for EC50: IL-6 inhibition, LPS-stimulated THP-1 cells, HTRF; for inhibition at 10 µM: THP-1, read-out: percentage in parentheses beside EC50 >10 (IL-6 inhibition)
Summary of the method: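 After 24 h in 1% FBS medium, cells had compound 2 h before 500 ng/mL LPS, then 22 h more at 37 °C. DMSO-normalized HTRF signal (665/620 nm ratio, anti-IL-6 antibody pair) was fitted with a variable-slope four-parameter model to give EC50.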

[4] = tested on: primary human mesenchymal stem cells (hMSCs); assay: Induction of chondrogenesis in human mesenchymal stem cells (nodule area, Rhodamine B/Nile Red); conditions: hMSC chondrogenesis; for Emax: relative to TGF-β3 (10 ng/mL) positive control, read-out: Max. Activity as % TGF-β3 activity; for EC50: concentration required to induce 50% levels of chondrogenesis of TGF-β3 positive control, read-out: Conc (nM) of 50% TGF-β3 activity
Text: Representative compounds were screened using primary human mesenchymal stem cells (hMSCs) to determine their ability to induce chondrogenesis (process by which cartilage is developed).
Primary human mesenchymal stem cells (hMSCs) were purchased from Lonza (Walkersville, Md.) and expanded in Mesenchymal Stem Cell Growth Media (Lonza). Cells between passage 3 and 6 were used for the experiments.
Area of nodules in each well was normalized to the average of 3 DMSO treated wells on the same plate using Excel (Microsoft Inc.). The normalized averages (fold change over DMSO) of 2 or 3 replicate wells for each compound concentration were calculated. Due to solubility limitations of some of the compounds, curve fitting was incomplete leading to inaccurate EC50 determinations.
Using TGF-β3 as a positive control, the concentration of representative compounds required to induce 50% levels of chondrogenesis is reported. In addition, the maximum activity of each compound and the respective dose that each compound reached maximum chondrogenesis activity is reported.

Compound | EC50 [1] [µM] | EC50 (SW480 colon cancer cells) [µM] | EC50 [2] [µM] | EC50 [3] [µM] | inhibition at 10 µM [3] [%] | Emax [4] [%] | inhibition at 10 µM (SW480 colon cancer cells) [%] | EC50 [4] [nM] | inhibition at 10 µM [1] [%] | inhibition at 10 µM [2] [%]
Nc1cncc(-c2ccc3[nH]nc(-c4cc5c(-c6ccccc6F)ccnc5[nH]4)c3c2)c1 [Compound 59, 5-(3-(4-(2-Fluorophenyl)-1H-pyrrolo[2,3-b]pyridin-2-yl)-1H-indazol-5-yl) pyridin-3-amine] | 0.131 | 0.399 | 0.592 | > 10 | 31.6 | 24 |  |  |  | 
FC1(F)CCN(Cc2cncc(-c3ccc4[nH]nc(-c5cc6c(-c7cccnc7)ccnc6[nH]5)c4c3)c2)C1 [Compound 110, 5-(5-((3,3-Difluoropyrrolidin-1-yl)methyl)pyridin-3-yl)-3-(4-(pyridin-3-yl)-1H-pyrrolo[2,3-b]pyridin-2-yl)-1H-indazole] | 0.523 | > 10 | 0.095 | 3.34 |  | 20 | 51.8 |  |  | 
CN1CCN(c2ccnc3[nH]c(-c4n[nH]c5ccc(-c6cncc(CN7CCCC7)c6)cc45)cc23)CC1 [Compound 238, 3-(4-(4-Methylpiperazin-1l-yl)-1H-pyrrolo[2,3-b]pyridin-2-yl)-5-(5-(pyrrolidin-1-ylmethyl)pyridin-3-yl)-1H-indazole] | 3.48 | 4.34 | 1.92 | > 10 | 29.4 | 22 |  |  |  | 
Fc1cccc(-c2ccnc3[nH]c(-c4n[nH]c5ccc(C6CCNCC6)cc45)cc23)c1 [Compound 505, 3-(4-(3-Fluorophenyl)-1H-pyrrolo[2,3-b]pyridin-2-yl)-5-(piperidin-4-yl)-1H-indazole] | 0.563 | 0.465 | 0.335 | 0.166 |  | 103 |  | 900 |  | 
Fc1ccc(-c2ccnc3[nH]c(-c4n[nH]c5ccc(-c6cncc(CN7CCCC7)c6)cc45)cc23)cc1 [Compound 42, 3-(4-(4-Fluorophenyl)-1H-pyrrolo[2,3-b]pyridin-2-yl)-5-(5-(pyrrolidin-1-ylmethyl)pyridin-3-yl)-1H-indazole] | > 10 | 1.51 | 2.93 | > 10 | 40.2 | 22 |  |  | 14.8 | 
CN(C)c1cncc(-c2ccc3[nH]nc(-c4cc5c(-c6ccccn6)ccnc5[nH]4)c3c2)c1 [Compound 147, N,N-Dimethyl-5-(3-(4-(pyridin-2-yl)-1H-pyrrolo[2,3-b]pyridin-2-yl)-1H-indazol-5-yl)pyridin-3-amine] | > 10 | > 10 | > 10 | > 10 | 30.5 | 77 | 15.4 | 10 | 13.7 | 34
c1cnc2[nH]c(-c3n[nH]c4ccc(-c5cncnc5)cc34)cc2c1 [Compound 279, 5-(Pyrimidin-5-yl)-3-(1H-pyrrolo[2,3-b]pyridin-2-yl)-1H-indazole] | > 10 | > 10 | 9.84 | 0.14 |  | 84 | 17.9 | 10 | 16.6 | 
Nc1cncc(-c2ccc3[nH]nc(-c4cc5cccnc5[nH]4)c3c2)c1 [Compound 255, 5-(3-(1H-Pyrrolo[2,3-b]pyridin-2-yl)-1H-indazol-5-yl)pyridin-3-amine] | 0.102 | 0.632 | 0.138 | 0.015 |  | 36 |  |  |  | 
c1cc(N2CCCCC2)c2cc(-c3n[nH]c4ccc(-c5cncc(CN6CCCC6)c5)cc34)[nH]c2n1 [Compound 182, 3-(4-(Piperidin-1-yl)-1H-pyrrolo[2,3-b]pyridin-2-yl)-5-(5-(pyrrolidin-1-ylmethyl)pyridin-3-yl)-1H-indazole] | > 10 | 4.08 | 7.76 | 0.315 |  | 21 |  |  | 36 | 
Fc1ccc(-c2ccnc3[nH]c(-c4n[nH]c5ccc(-c6cncnc6)cc45)cc23)cc1 [Compound 55, 3-(4-(4-Fluorophenyl)-1H-pyrrolo[2,3-b]pyridin-2-yl)-5-(pyrimidin-5-yl)-1H-indazole] | > 10 | > 10 | > 10 | > 10 | 25.6 | 82 | 17.3 | 2700 | 11.7 | 7.3
CN(C)Cc1cncc(-c2ccc3[nH]nc(-c4cc5c(-c6cccc(F)c6)ccnc5[nH]4)c3c2)c1 [Compound 13, 1-(5-(3-(4-(3-Fluorophenyl)-1H-pyrrolo[2,3-b]pyridin-2-yl)-1H-indazol-5-yl)pyridin-3-yl)-N,N-dimethylmethanamine] | 1.18 | 2.92 | 1.19 | > 10 | 55.3 | 48 |  |  |  | 
CCNCc1cncc(-c2ccc3[nH]nc(-c4cc5c(-c6cccnc6)ccnc5[nH]4)c3c2)c1 [Compound 90, N-((5-(3-(4-(Pyridin-3-yl)-1H-pyrrolo[2,3-b]pyridin-2-yl)-1H-indazol-5-yl)pyridin-3-yl)methyl)ethanamine] | > 10 | > 10 | > 10 | 0.561 |  | 29 | 31.3 |  | 28.6 | 0
CN(C)Cc1cncc(-c2ccc3[nH]nc(-c4cc5c(-c6cccc(F)c6)ccnc5[nH]4)c3c2F)c1 [Compound 994, 1-(5-(4-Fluoro-3-(4-(3-fluorophenyl)-1H-pyrrolo[2,3-b]pyridin-2-yl)-1H-indazol-5-yl)pyridin-3-yl)-N,N-dimethylmethanamine] | > 10 | > 10 | 4.9 | > 10 | 36.6 | 21 | 34.7 |  | 20.8 | 
Nc1cncc(-c2ccc3[nH]nc(-c4cc5c(N6CCCCC6)ccnc5[nH]4)c3c2)c1 [Compound 171, 5-(3-(4-(Piperidin-1-yl)-1H-pyrrolo[2,3-b]pyridin-2-yl)-1H-indazol-5-yl) pyridin-3-amine] | 0.604 | 1.23 | 1.72 | 0.622 |  | 130 |  | 30 |  | 
CN(C)Cc1cncc(-c2cc3c(-c4cc5c(-c6cccc(F)c6)ccnc5[nH]4)n[nH]c3cc2F)c1 [Compound 993, 1-(5-(6-Fluoro-3-(4-(3-fluorophenyl)-1H-pyrrolo[2,3-b]pyridin-2-yl)-1H-indazol-5-yl)pyridin-3-yl)-N,N-dimethylmethanamine] | > 10 | 2.4 | 1.63 | 0.852 |  | 28 |  |  |  | 
CCC(=O)Nc1cncc(-c2ccc3[nH]nc(-c4cc5c(-c6cccc(F)c6)ccnc5[nH]4)c3c2)c1 [Compound 1, N-(5-(3-(4-(3-Fluorophenyl)-1H-pyrrolo[2,3-b]pyridin-2-yl)-1H-indazol-5-yl)pyridin-3-yl)propionamide] | 0.013 | 1.03 | 0.141 | 6.14 |  | 167 |  | 100 |  | 
